Assay results reported in the supplement of paper PMC10307832.

Assays:
Test in all cases: relative viability (nuclei count vs DMSO), 5 days (fraction); higher = more cells survive
OSI-027 + Foretinib = compound: COc1cccc2cc(-c3nc([C@H]4CC[C@H](C(=O)O)CC4)n4ncnc(N)c34)[nH]c12 [OSI-027] + COc1cc2c(Oc3ccc(NC(=O)C4(C(=O)Nc5ccc(F)cc5)CC4)cc3F)ccnc2cc1OCCCN1CCOCC1 [Foretinib] (partner 0.25 µM)
How it was run: (§1)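 A single step with final 0.05% Triton X-100, 1% formaldehyde and 1 ug/ml Hoechst fixed the cells and stained nuclei 5 days after treatment. Lung cancer cell lines in 1536-well plates had been treated by pin tool the day after seeding with one drug alone or a fixed anchor-drug dose plus five library-drug doses (not always all listed) in √10 steps, and nuclei were counted on 4× images. Relative viability is the ratio of nuclei in treated wells to nuclei in vehicle wells, taken as the median of duplicate plates.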

Alpelisib + Lapatinib = compound: Cc1nc(NC(=O)N2CCC[C@H]2C(N)=O)sc1-c1ccnc(C(C)(C)C(F)(F)F)c1 [Alpelisib] + CS(=O)(=O)CCNCc1ccc(-c2ccc3ncnc(Nc4ccc(OCc5cccc(F)c5)c(Cl)c4)c3c2)o1 [Lapatinib] (partner 2 µM)
How it was run: as §1

Alpelisib + Dasatinib = compound: Cc1nc(NC(=O)N2CCC[C@H]2C(N)=O)sc1-c1ccnc(C(C)(C)C(F)(F)F)c1 [Alpelisib] + Cc1nc(Nc2ncc(C(=O)Nc3c(C)cccc3Cl)s2)cc(N2CCN(CCO)CC2)n1 [Dasatinib] (partner 0.075 µM)
How it was run: as §1

Alpelisib + Vorinostat = compound: Cc1nc(NC(=O)N2CCC[C@H]2C(N)=O)sc1-c1ccnc(C(C)(C)C(F)(F)F)c1 [Alpelisib] + O=C(CCCCCCC(=O)Nc1ccccc1)NO [Vorinostat] (partner 1 µM)
How it was run: as §1

Cell Line	relative viability (OSI-027 + Foretinib; first compound 0.01 µM)	relative viability (OSI-027 + Foretinib; first compound 0.03162 µM)	relative viability (OSI-027 + Foretinib; first compound 0.1 µM)	relative viability (OSI-027 + Foretinib; first compound 0.3162 µM)	relative viability (OSI-027 + Foretinib; first compound 1 µM)	relative viability (Alpelisib + Lapatinib; first compound 0.04 µM)	relative viability (Alpelisib + Lapatinib; first compound 0.1265 µM)	relative viability (Alpelisib + Lapatinib; first compound 0.4 µM)	relative viability (Alpelisib + Lapatinib; first compound 1.265 µM)	relative viability (Alpelisib + Lapatinib; first compound 4 µM)	relative viability (Alpelisib + Dasatinib; first compound 0.04 µM)	relative viability (Alpelisib + Dasatinib; first compound 0.1265 µM)	relative viability (Alpelisib + Dasatinib; first compound 0.4 µM)	relative viability (Alpelisib + Dasatinib; first compound 1.265 µM)	relative viability (Alpelisib + Dasatinib; first compound 4 µM)	relative viability (Alpelisib + Vorinostat; first compound 0.04 µM)	relative viability (Alpelisib + Vorinostat; first compound 0.1265 µM)	relative viability (Alpelisib + Vorinostat; first compound 0.4 µM)	relative viability (Alpelisib + Vorinostat; first compound 1.265 µM)	relative viability (Alpelisib + Vorinostat; first compound 4 µM)
NCI-H3122	1.02	0.998	1.03	0.98	0.45	1.01	1.02	1.07	1.02	0.919	0.806	0.653	0.624	0.487	0.295	0.783	0.985	1.28	1.01	0.491
PC-3 [JPC-3]	1.02	0.976	0.963	0.98	0.454	0.438	0.555	0.404	0.424	0.394	0.948	0.928	0.993	0.903	0.907	0.877	0.699	1.12	0.638	0.514
PC-14	0.937	0.843	1.03	0.958	0.847	0.358	0.401	0.301	0.265	0.235	0.256	0.243	0.23	0.221	0.202	0.771	0.681	0.717	0.432	0.624
RERF-LC-KJ	0.869	0.885	0.919	0.622	0.445	0.795	0.773	0.867	0.64	0.735	0.766	0.733	0.758	0.475	0.541	0.634	0.707	0.754	0.504	0.548
SK-LU-1	0.911	0.816	0.586	0.433	0.28	1.07	0.707	0.858	0.767	0.704	0.141	0.149	0.133	0.128	0.0997	0.817	0.775	0.847	0.676	0.689
SK-MES-1	0.874	1.1	0.926	0.69	0.447	0.454	0.463	0.483	0.409	0.37	0.332	0.334	0.438	0.17	0.191	1.13	1.09	1.15	0.828	0.833
SW 1573	0.753	0.923	0.713	0.59	0.787	1.06	1.06	1.06	1.09	0.873	0.438	0.458	0.672	0.364	0.202	0.833	0.684	0.678	0.388	0.584
